The values that follow are results of earlier work, collected in US20090203732A1, “Thiazolones for Use as P13 Kinase Inhibitors” (priority 2006, published 2009).

Read-outs that look alike come from different tables or passages of the source.

The target in one data set is CK2 protein kinase (Homo sapiens, UniProt P68400).
CK2 protein kinase, sequence (P68400 whole entry): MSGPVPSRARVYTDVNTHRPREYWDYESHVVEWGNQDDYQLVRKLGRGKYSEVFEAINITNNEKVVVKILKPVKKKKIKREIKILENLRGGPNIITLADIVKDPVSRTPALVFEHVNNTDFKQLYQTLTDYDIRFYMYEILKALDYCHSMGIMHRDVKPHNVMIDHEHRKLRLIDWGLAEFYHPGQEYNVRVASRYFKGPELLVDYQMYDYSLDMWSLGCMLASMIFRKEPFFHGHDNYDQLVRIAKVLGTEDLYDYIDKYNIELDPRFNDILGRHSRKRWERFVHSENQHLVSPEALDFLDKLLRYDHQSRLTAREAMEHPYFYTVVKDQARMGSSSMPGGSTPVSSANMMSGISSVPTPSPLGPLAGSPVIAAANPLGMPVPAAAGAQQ

As to `O=c1cc(N2CCOCC2)oc2c(-c3ccccc3)cccc12` [LY294002], the IC50 was 15 to 20 µM with Class I PI3-kinases (each of the Class I PI3-kinases, Fruman et al. 1998, read-out: IC50 against each of these PI3-kinases) and 5 to 10 µM on CK2 protein kinase. As to `COC[C@H]1OC(=O)c2coc3c2[C@@]1(C)C1=C(C3=O)[C@@H]2CCC(=O)[C@@]2(C)C[C@H]1OC(C)=O` [wortmannin], the IC50 in the data set on Class I PI3-kinases (each of the four members of Class I PI3-kinases, read-out: IC50 against each of the various Class I PI3-kinases) is 0.001 to 0.01 µM.

A word on the IC50: it is the concentration at which inhibition is half-maximal.
